Measurements: article PMC5760531, “Action Potential Recording and Pro-arrhythmia Risk Analysis in Human Ventricular Trabeculae” (Frontiers in Physiology, 2018)
“And” between values parts separate entries of the source, which are not always exact repeats. Equal entries are not always repeated.

Experiments:
[1] = human free (unbound) effective therapeutic plasma concentration used to calculate multiples; cited from earlier work
[2] = test system: human ventricular trabeculae; assay: Action potential recording and pro-arrhythmic score analysis in human ventricular trabeculae (hVT); settings: 1.3-, 13-, 43-FOLD free ETPC (2.3µM); for EADs incidence / Refractoriness Escape incidence: c1-c4: 0.4-;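 for all read-outs here: sharp microelectrode action potential recordings at 37°C in Tyrode-perfused trabeculae, 4 cumulative concentrations each applied 31 min, values averaged over last 30 APs, vehicle 0.1% DMSO as control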
[3] = average raw data, 1Hz, c2-c5: 0.4-
[4] = average raw data, 2Hz, c2-c5: 0.4-

In the case of `COc1ccccc1OCC(O)CN1CCN(CC(=O)Nc2c(C)cccc2C)CC1` (stereo not drawn) [RANOLAZINE, Ranolazine], the “Free ETPC” value [1] is given as 2.3 µM, the EADs incidence ([2]; 1Hz) is given as 0% and the “Refractoriness Escape incidence” value ([2]; 1Hz) is given as 0%. For the same compound, the EADs incidence ([2]; 2Hz) was 0%, the “Refractoriness Escape incidence” value ([2]; 2Hz) was 0% and the AMAX [2, 3] was 112 mV and 111 mV and 113 mV and 109 mV. For the same compound, the APD30 [2, 3] was 146 ms and 136 ms and 126 ms and 116 ms, the APD50 [2, 3] was 198 ms and 187 ms and 181 ms and 170 ms and the APD90 [2, 3] was 266 ms and 257 ms and 274 ms and 294 ms. For the same compound, the Alternans [2, 3] was 0.34 and 0.37 and 0.39, the EADs [2, 3] was 0 and the ERP [2, 3] was 0.47 and 0.48 and 0.50 and 0.49. For the same compound, the “Max Dispersion” value [2, 3] was 1.65 and 1.42 and 1.45 and 1.75, the “Refractoriness Escape” value [2, 3] was 0 and the STV [2, 3] was 0.22 and 0.27 and 0.29 and 0.24. For the same compound, the Triangulation [2, 3] was 121 and 148 and 178, the AMAX [2, 4] was 111 mV and 105 mV and the APD30 [2, 4] was 108 ms and 102 ms and 99 ms and 104 ms. The APD50 [2, 4] was 151 ms and 144 ms and 143 ms, the APD90 [2, 4] was 215 ms and 210 ms and 230 ms and 275 ms and the EADs [2, 4] was 0. The ERP [2, 4] was 0.48 and 0.49 and 0.47, the “Refractoriness Escape” value [2, 4] was 0 and the Triangulation [2, 4] was 107 and 108 and 131 and 172.
